Legend:
[1] = test system: HR+/HER2− breast cancer with PIK3CA mutations; conditions: patients with PIK3CA mutations, few treated with CDK4/6i; cited from earlier work
Plasma pharmacokinetics = conditions: data not shown

Structure (SMILES): C[C@]12CC[C@@H]3c4ccc(O)cc4C[C@@H](CCCCCCCCC[S+]([O-])CCCC(F)(F)C(F)(F)F)[C@H]3[C@@H]1CC[C@@H]2O (stereo partly drawn) [fulvestrant]
- ORR [1]: 12.8%
- effect of molibresib on fulvestrant pharmacokinetics (Plasma pharmacokinetics; fulvestrant predose concentrations): lack of effect
- predose concentrations (Plasma pharmacokinetics; fulvestrant with molibresib, compared with ref 18): within the range anticipated
